Source: patent US8865623B2, “Herbicidally active cyclic diones and derivatives thereof, processes for their preparation, compositions, and method of controlling weeds” (Syngenta Limited, priority 2009, dated 2014)

How the values were obtained:
Assay type in all cases: in vivo
[1] = test system: Alopecurus myosuroides (ALOMY); assay: Pre-emergence herbicidal activity, glasshouse pot test; conditions: Alopecurus myosuroides, 312 h; Rate 250 g/ha; pre-emergence spray; evaluated after 13 days; read-out: Pre-emergence activity ALOMY (100=total damage to plant; 0=no damage to plant)
Experimental: (§1) Seeds of a variety of test species were sown in standard soil in pots. After cultivation for one day (pre-emergence) or after 8 days cultivation (post-emergence) under controlled conditions in a glasshouse (at 24/16° C., day/night; 14 hours light; 65% humidity), the plants were sprayed with an aqueous spray solution derived from the formulation of the technical active ingredient in acetone/water (50:50) solution containing 0.5% Tween 20 (polyoxyethelyene sorbitan monolaurate, CAS RN 9005-64-5). The test plants were then grown in a glasshouse under controlled conditions in a glasshouse (at 24/16° C., day/night; 14 hours light; 65% humidity) and watered twice daily. After 13 days for pre and post-emergence, the test was evaluated (100=total damage to plant; 0=no damage to plant).
(§2) Lolium perenne (LOLPE), Alopecurus myosuroides (ALOMY), Echinochloa crus-galli (ECHCG), and Avena fatua (AVEFA).

[2] = test system: Avena fatua (AVEFA); assay: as above; conditions: Avena fatua, 312 h; Rate 250 g/ha; pre-emergence spray; evaluated after 13 days; read-out: Pre-emergence activity AVEFA (100=total damage to plant; 0=no damage to plant)
Experimental: as §1, §2

[3] = test system: Echinochloa crus-galli (ECHCG); assay: as above; conditions: Echinochloa crus-galli, 312 h; Rate 250 g/ha; pre-emergence spray; evaluated after 13 days; read-out: Pre-emergence activity ECHCG (100=total damage to plant; 0=no damage to plant)
Experimental: as §1, §2

[4] = test system: Lolium perenne (LOLPE); assay: as above; conditions: Lolium perenne, 312 h; Rate 250 g/ha; pre-emergence spray; evaluated after 13 days; read-out: Pre-emergence activity LOLPE (100=total damage to plant; 0=no damage to plant)
Experimental: as §1, §2

[5] = test system: Alopecurus myosuroides (ALOMY); assay: Post-emergence herbicidal activity, glasshouse pot test; conditions: Alopecurus myosuroides, 312 h, rate 250 g/ha, evaluated after 13 days, glasshouse, read-out: Post-emergence activity ALOMY (100=total damage to plant; 0=no damage to plant)
Experimental: as §1, §2

[6] = test system: Avena fatua (AVEFA); assay: as above; conditions: Avena fatua, 312 h, rate 250 g/ha, evaluated after 13 days, glasshouse, read-out: Post-emergence activity AVEFA (100=total damage to plant; 0=no damage to plant)
Experimental: as §1, §2

[7] = test system: Echinochloa crus-galli (ECHCG); assay: as above; conditions: Echinochloa crus-galli, 312 h, rate 250 g/ha, evaluated after 13 days, glasshouse, read-out: Post-emergence activity ECHCG (100=total damage to plant; 0=no damage to plant)
Experimental: as §1, §2

[8] = test system: Lolium perenne (LOLPE); assay: as above; conditions: Lolium perenne, 312 h, rate 250 g/ha, evaluated after 13 days, glasshouse, read-out: Post-emergence activity LOLPE (100=total damage to plant; 0=no damage to plant)
Experimental: as §1, §2

Row | SMILES | pest or weed control at 250 g/ha [1] | pest or weed control at 250 g/ha [2] | pest or weed control at 250 g/ha [3] | pest or weed control at 250 g/ha [4] | pest or weed control at 250 g/ha [5] | pest or weed control at 250 g/ha [6] | pest or weed control at 250 g/ha [7] | pest or weed control at 250 g/ha [8]
1 | CCc1ccc(Oc2ccc(F)cc2)cc1C1=C(O)C(C)(C)OC(C)(C)C1=O [Example A-22] | 20% | 10% | 80% | 60% | 20% | 30% | 100% | 30%
2 | CCc1ccc(Oc2ccc(Cl)cc2Br)cc1C1=C(O)C(C)(C)OC(C)(C)C1=O [Example A-23] | 70% | 70% | 90% | 90% | 80% | 80% | 100% | 90%
3 | CCc1ccc(Oc2ccc(F)c(Cl)c2)cc1C1=C(O)C(C)(C)OC(C)(C)C1=O [Example A-24] | 30% | 40% | 90% | 90% | 70% | 70% | 100% | 70%
4 | CCc1ccc(Oc2ccc(Br)cc2F)cc1C1=C(O)CC2(CCOCC2)CC1=O [Example A-25] | 70% | 80% | 90% | 80% | 90% | 100% | 100% | 90%
5 | CCc1ccc(Oc2ccc(Cl)cc2)cc1C1=C(O)CC(C)(C)CC1=O [Example A-26] | 70% | 40% | 100% | 80% | 80% | 40% | 100% | 70%
6 | CCc1ccc(Oc2ccc(Cl)cc2)cc1C1=C(O)CCCC1=O [Example A-27] | 40% | 60% | 100% | 60% | 30% | 40% | 90% | 30%
7 | CCc1ccc(Oc2ccc(F)cc2)cc1C1=C(O)CC(C)(C)CC1=O [Example A-28] | 20% | 0% | 70% | 40% | 30% | 20% | 80% | 40%
8 | CCc1ccc(Oc2ccc(F)cc2)cc1C1=C(O)CCCC1=O [Example A-29] | 0% | 10% | 40% | 30% | 0% | 0% | 70% | 10%
9 | CCc1ccc(Oc2ccc(Cl)cc2F)cc1C1=C(O)CC(C)(C)CC1=O [Example A-30] | 70% | 50% | 80% | 70% | 70% | 60% | 100% | 60%
10 | CCc1ccc(Oc2ccc(Cl)c(F)c2)cc1C1=C(O)C(C)(C)OC(C)(C)C1=O [Example A-31] | 90% | 80% | 100% | 100% | 90% | 80% | 100% | 100%
11 | CCc1ccc(Oc2cccc(Br)c2)cc1C1=C(O)C(C)(C)OC(C)(C)C1=O [Example A-32] | 30% | 20% | 90% | 80% | 30% | 20% | 100% | 40%
